Measurements published in patent US20050209157A1, “Short bioactive peptides and methods for their use” (priority 2001, published 2005).
“Also recorded” adds a separate entry of the source. No end group written: not given here.

How the values were obtained:
S. pneumoniae C718 = test: Antimicrobial assays II, NCCLS broth microdilution MIC; format: cell-based, Streptococcus pneumoniae; details: mean of three
[1] = tested on: hairless rat skin burn wound; test: In vivo wound healing, TCA chemically induced skin burn wound; details: for Epidermal thickening / Fibroblast cells in test area / Inflammatory response area / Leukocyte cells in test area / Wound closure: rat model, TCA burn treated by peptide; for Wound closure: 26 days
Excerpt: The hairless rat was chosen as a suitable test model. Female hairless rats of 100 to 150 grams weight and 8 to 12 weeks age were used in the study.
As an alternative, 70% trichloroacetic (TCA) dissolved in 70% ethanol was employed to induce the dermal erosion patches. […] As the chemical burn agent, the TCA treatment inflicted on the rats far less trauma and mortality than occurred with the Phenol model.
The experimental Protocol procedure steps were as follows: • 1. The animal was anesthetized (40 mg/kg Phenobarbital). • 2. Color photographs of the animal's back (with six separate peels) were taken before each treatment and daily thereafter. • 3. Rat skin surface was prepared by wiping with 70% ethanol. Filter paper discs (1.1 cm diameter) were soaked in 70% TCA/ethanol. • 4. The discs were placed on the back of the hairless rat for 30 minutes [6 disks providing for 2 control (no peptide treatment) disks and 4 disks for peels to receive peptide treatment.] • 5. After a 30 minute burn the discs were removed. Twenty four hours later, different peptide solutions (1500 ppm in saline) were applied to four peels, and saline was applied to the two control peels. • 6. Peptide solutions (and saline for the controls) were applied to the six wounds with a soft brush each day thereafter. • 7. It took approximately one month for the wounds to heal (complete skin closure with stabilized epidermis), after which the animal was sacrificed. • 8. The treated skin was harvested, section stained with trichrome, and mounted on slides.
The percentage of wound closure for each peel (six sites) was measured each day until the animal was sacrificed. The percentage closure was determined by measuring on the animal photographs the area of the remaining scab relative to the area of the initial scar after the burn. These measurements were made by digitizing and analyzing the peels using the Sigma Plot ProScan 4 program.
This provided a measure of the post-TCA burn treatment of the inflammatory response in each peel site.
The extent of epidermal thickening (hyperkeratosis) at each site was also determined by measurement with the Sigma Plot program applied to the stained section slides of the various wound areas and the normal untreated skin (control) surrounding the peels. At magnifications of 100× to 320×, the microphotographs of the color slides provided a powerful tool for such quantification of the extent of hyperkeratosis evident in each peel.
Treatment of the section slides with selective stains produced identifiable evidence of the presence of both leukocyte and fibroblast cells in the wound areas. This was also quantified by the Sigma Plot program.
The above described animal model and protocols were employed in the testing of approximately 20 of the peptides listed in Table 48 (and other peptides for comparison) as preferred FLAK peptides for wound healing.

P. acne ATCC 6919 = test: Antimicrobial assays II, NCCLS broth microdilution MIC; format: cell-based, Propionibacterium acnes; details: mean of three, in µg/mL
S. pyogenes ATCC19615 = test: as above; format: cell-based, Streptococcus pyogenes; details: mean of three, in µg/mL
in vitro = format: cell-based, human; details: human, human red blood cells, pH 7, hemolytic assay, concentration at 50% hemolysis, 1 hour at 37° C.; read-out: LD50
S. aureus (MRSA) = format: cell-based, Staphylococcus aureus; details: mean of three; 16 to 20 hours at 35° C.
Pseudomonas aeruginosa = test: Serum inactivation of peptides, serum MIC; format: cell-based; details: for MIC 30 min treatment: sheep serum 37° C. 30 minutes; for MIC 2 hr treatment: sheep serum 37° C. 2 hours
Description: Subsequently, the serum MICs against Pseudomonas aeruginosa were conducted to determine extent of serum inactivation of the peptides.

S. pyogenes M76 = test: Antimicrobial assays II, NCCLS broth microdilution MIC; format: cell-based, Streptococcus pyogenes; details: mean of three; 16 to 20 hours at 35° C.
E. coli UB1005 = format: cell-based, Escherichia coli; details: mean of three; 16 to 20 hours at 35° C.; in µg/mL
S. typhimurium 14028S = format: cell-based, Salmonella typhimurium; details: mean of three; 16 to 20 hours at 35° C.; in µg/mL
[2] = tested on: human red blood cells (RBC); test: in vitro; format: cell-based; details: hemolytic assay, concentration at 50% hemolysis, 1 hour at 37° C.

Substance	S. pneumoniae MIC (S. pneumoniae C718) [µg/mL]	Epidermal thickening [1]	Fibroblast cells in test area [1]	Inflammatory response area [1]	Leukocyte cells in test area [1]	Wound closure [1]	P. acne MIC (P. acne ATCC 6919)	S. pyogenes MIC (S. pyogenes ATCC19615)	HC50 at 1 h (in vitro) [µg/mL]	S. aureus (MRSA) MIC (S. aureus (MRSA)) [µg/mL]	S. pyogenes M76 MIC (S. pyogenes M76) [µg/mL]	E. coli UB1005 MIC (E. coli UB1005)	S. typhimurium 14028S MIC (S. typhimurium 14028S)	also measured
FALKALKKLKKALKKAL-NH2 [P153]	32	25 % of control (TCA only)	350 % of normal skin	7 % of healed scar	235 % of normal skin	99.1 % of initial wound	4	2	800	16	2	–	–	rate of wound closure ([1]; hairless rat, full wound closure at 26 days): small advantage in rate of wound closure over the other peptides and no peptide; ability to limit post-TCA burn inflammatory responses ([1]; hairless rat, peptide solutions 1500 ppm in saline, topical daily): superior in this respect; hyperkeratosis (epidermal thickening) ([1]; hairless rat, peptide solutions 1500 ppm in saline, topical daily, listed as SEQ ID NO:115): lowest evidence of hyperkeratosis (epidermal thickening); also recorded: substantially no hyperkeratosis as compared to the TCA burn untreated control; MIC 30 min treatment (Pseudomonas aeruginosa; first of two columns): 10 µg/mL; MIC 30 min treatment (Pseudomonas aeruginosa; second of two columns): 5 µg/mL; MIC 2 hr treatment (Pseudomonas aeruginosa; first of two columns): 20 µg/mL; MIC 2 hr treatment (Pseudomonas aeruginosa; second of two columns): 5 µg/mL; change of activity by exposure to serum (serum MIC against Pseudomonas aeruginosa) (Pseudomonas aeruginosa; sheep serum, […], 37° C. for 30 minutes or 2 hours): only modestly decreased
FAVGLRAIKRALKKLRRGVRKVAKDL-NH2 [P157, reference compound]	128	80 % of control (TCA only)	450 % of normal skin	25 % of healed scar	265 % of normal skin	95.2 % of initial wound	4	8	850	32	8	8	8	–
MPKWKVFKKIEKVGRNIRNGIVKAGPAIAVLGEAKALG-NH2 [P12, reference compound]	–	–	–	–	–	–	–	–	–	–	–	1	4	LD50 [2]: > (> indicates greater than 1000)
